Assay results: ChEMBL document CHEMBL1130628, “Synthesis and antiproliferative activity of a cyclic analog of dolastatin 10” (Bioorg Med Chem Lett, 1998)

How the values were obtained:
[1] = test system: HT-29; assay: Compound was evaluated for antiproliferative activity against human colon adenocarcinoma (HT-29) cell lines.; type: functional, cell-based
[2] = test system: L1210; assay: Compound was evaluated for antiproliferative activity against murine leukemia (L1210) cell lines; type: functional, cell-based; conditions: Mus musculus
[3] = target: T1, Tubulin alpha chain (Sus scrofa, UniProt P02550); assay: Compound was tested in vitro for inhibition of tubulin polymerization; type: functional
[4] = test system: L1210; assay: Compound was evaluated for antiproliferative activity against murine leukemia (L1210) cell lines.; type: functional, cell-based; conditions: Mus musculus
[5] = target: T1, Tubulin alpha chain; assay: Compound was tested in vitro for inhibition of tubulin polymerization.; type: functional

T1 sequence (P02550 whole entry, looked up): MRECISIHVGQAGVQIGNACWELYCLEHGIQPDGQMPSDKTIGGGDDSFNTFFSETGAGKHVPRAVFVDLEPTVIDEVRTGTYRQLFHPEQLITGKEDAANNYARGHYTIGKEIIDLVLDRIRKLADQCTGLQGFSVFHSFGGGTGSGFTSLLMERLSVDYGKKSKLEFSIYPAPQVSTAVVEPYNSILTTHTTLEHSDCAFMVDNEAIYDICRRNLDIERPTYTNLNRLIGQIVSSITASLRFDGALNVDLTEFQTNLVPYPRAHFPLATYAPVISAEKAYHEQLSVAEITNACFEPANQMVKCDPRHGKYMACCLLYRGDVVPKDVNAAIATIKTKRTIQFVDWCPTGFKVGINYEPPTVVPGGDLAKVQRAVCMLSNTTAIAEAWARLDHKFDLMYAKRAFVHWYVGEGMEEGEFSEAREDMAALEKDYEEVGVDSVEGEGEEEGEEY

Row | IC50 [2] | IC50 [3] | SMILES | IC50 [1] | IC50 [4] | IC50 [5]
1 | 111 nM | 39000 nM | CC[C@H](C)[C@H]1[C@H](OC)CC(=O)N2CCC[C@H]2[C@H](OC)[C@H](C)C(=O)N[C@@H](Cc2ccccc2)c2nc(cs2)C(=O)O[C@H](C)[C@H](N(C)C)C(=O)N[C@@H](C(C)C)C(=O)N1C | 58.5 nM |  | 
2 |  |  | CC[C@H](C)[C@@H]([C@@H](CC(=O)N1CCC[C@H]1[C@H](OC)C(C)C(=O)NC(Cc1ccccc1)c1nccs1)OC)N(C)C(=O)[C@@H](NC(=O)[C@H](C(C)C)N(C)C)C(C)C (single isomer, unassigned) [DOLASTATIN-10] | 0.06 nM | 0.03 nM | 2200 nM
